Results from patent US12527753B2, “Cysteamine for the treatment, mitigation and prevention of coronaviral, e.g., SARS-CoV-2, infections” (The Regents of the University of Michigan, priority 2020, dated 2026).
pEC50: −log10 of the molar value. Counter-ions that a name gives are not always drawn. Like-named read-outs stand apart in the source and are kept apart here.

What was measured:
[1] = system: HTLV-IIIB strain of HIV-1; details: 100 μM; CEM cells; cited from earlier work
[2] = aqueous 0.1% and 0.5%, topical; cited from earlier work
epithelial fibroblasts = details: concentrations up to 10 μM; cited from earlier work
[3] = system: HIV-1 (4 primary isolates and 2 laboratory strains); details: cited from earlier work
SARS-CoV-2-WA1 strain = experiment: Huh7 cellular infectivity assay with SARS-CoV-2 (high content bioimaging); format: cell-based; details: for efficacy in preventing SARS-CoV-2 infection: Huh-7 cells, normalized to infected and uninfected vehicle wells
Procedure: (§1) FIGS. 3A-D. Cysteamine efficacy in the Huh7 cellular infectivity assay with SARS-CoV-2-WA1 strain. Cells are infected at 0.2 MOI and are incubated for 48 hours to allow for the initial infection and propagation to surrounding cells. […] All concentrations of cysteamine (50, 20, 8, 3, 1.5 micromolar) tested were non-cytotoxic indicating an acceptable therapeutic index.
Experiments were conducted during development of embodiments herein using a fully developed high-content screening pipeline to screen approved drugs against SARS Cov-2, the causative agent of COVID-19. A high throughput screen of FDA-approved drugs was conducted to determine the efficacy in a SARS-CoV-2 infectivity assay. This high content bioimaging-based assay has proven to be highly robust and informative, and clearly differentiates between infected and uninfected cells (FIG. 2). This high-content screen identifies individual agents effective in reducing viral infectivity or replication by imaging individual SARS Cov-2 infected cells. A screen of 1,200 compounds was conducted through the validated assay platform. Remdesivir, a viral replication inhibitor, was selected as a positive control, which results in 100% efficacy.
Cysteamine was evaluated for its antiviral effects at 5 doses with 9 replicates at each dose for a total of 45 independent experiments. Automated image analysis was performed to quantitate the number and percentage of infected cells and that was normalized to the infected and vehicle (DMSO) treated wells and the uninfected and vehicle treated wells representing 0-100% efficacy, as shown on the y-axis dose response plot for cysteamine anti-SARS-CoV-2 (FIG. 3).

[4] = aqueous 0.1% and 0.5% (10 mM and 50 mM); cited from earlier work
Huh7 cells = experiment: Cytotoxicity in the Huh7 infectivity assay; format: cell-based; details: 50, 20, 8, 3, 1.5 micromolar
Procedure: as §1

SARS-CoV-2 WA wild type = experiment: Virus pre-incubation, plaque formation in TMPRSS cells; format: cell-based; details: Severe acute respiratory syndrome coronavirus 2, 2 h; 5 mM, 120 min incubation

Compound | inhibition of cytotoxicity [1] [%] | reduction of corneal cystine crystals [2] | tolerability in chronic use [2] | effect on growth rate (epithelial fibroblasts) | viral inhibition ([3]; 200 μM, lymphocytes) | viral inhibition ([3]; 100 microM, macrophages) | antiviral effect of combination ([3]; in conjunction with zidovudine or didanosine, without concomitant increases in toxicity) | viral infection relative to the negative control (SARS-CoV-2-WA1 strain; 8 micromolar, Huh7 cells, 0.2 MOI, 48 hours, syncytia present) | infected cells / nucleocapsid staining (SARS-CoV-2-WA1 strain; 20 micromolar, Huh7 cells, 0.2 MOI, 48 hours) | elimination of SARS-CoV-2 infection (SARS-CoV-2-WA1 strain; 50 micromolar, Huh7 cells, 0.2 MOI, 48 hours) [%] | pEC50 (SARS-CoV-2-WA1 strain; Huh7 cells, 0.2 MOI, 48 hours, read-out: EC50 (concentration at 50% effect)) | efficacy in preventing SARS-CoV-2 infection (SARS-CoV-2-WA1 strain) [%] | safety via the Draize test [4] | cytotoxicity (Huh7 cells) | inhibition at 5000 µM (SARS-CoV-2 WA wild type) [%]
2-aminoethanethiol [cysteamine] | 100 | effective in reducing the cystine crystals | well-tolerated | no effect on growth rate | More than 90% | More than 90% | additive antiviral effect | reduced viral infection relative to the negative control | small percentage of infected cells that have a diminished nucleocapsid staining | 100 | ~5.30 | ~100 | safe | non-cytotoxic | 
CCC(CC)COC(=O)[C@H](C)N[P@](=O)(OC[C@H]1O[C@@](C#N)(c2ccc3c(N)ncnn23)[C@H](O)[C@@H]1O)Oc1ccccc1 [Remdesivir] |  |  |  |  |  |  |  |  |  |  |  | 100 |  |  | 
NCCS [cysteamine HCl] |  |  |  |  |  |  |  |  |  |  |  |  |  |  | 85 to 95
